The test system of one data set is E. coli AcrAB–. To be noted: ref 10 (Z2, Z3), 11 (TXY436), 12 (I, II); cited from earlier work.
Data set [1] concerns Methicillin Sensitive S. aureus. To be noted: Methicillin Sensitive S. aureus; ref 10 (Z2, Z3), 11 (TXY436), 12 (I, II); cited from earlier work.
Data set [2] relates to selected Gram-negative strains. Further details: method as in PMID 24637241. Particulars: after genetic inactivation of AcrAB or its inhibition by PaβN ref 11; cited from earlier work.
The next data set relates to E. coli WildType. The arrangement: method as in earlier work. Particulars: ref 10 (Z2, Z3), 11 (TXY436), 12 (I, II); cited from earlier work.
In the next data set the test system is Sa cells. The arrangement: method as in PMID 31750973. To be noted: Sa cells incubated with the compounds ref 12; cited from earlier work.
For data set [3], the system named is E. coli ATCC 25922. The arrangement: method as in PMID 31750973. Particulars: in-house reference compounds ref 12; cited from earlier work.
Data set [4] concerns E. coli N43. The arrangement: method as in PMID 31750973. To be noted: E. coli N43 (AcrAB knockout); in-house reference compounds ref 12; cited from earlier work.
Data set [5] concerns ESBL E. coli. Further details: method as in PMID 31750973. Particulars: in-house reference compounds ref 12; cited from earlier work.
For data set [6], the system named is E. coli ATCC 25922. Kind of data set: MIC on reference sensitive E. coli. Particulars: E. coli ATCC 25922. It is filed as cell-based, Escherichia coli. An excerpt: (§1) We thus tested 1–8 and III initially on the reference sensitive E. coli ATCC 25922 and on the extended-spectrum of beta-lactamase-positive (ESBL) E. coli, as Gram-negative bacteria. Moreover, in order to evaluate the susceptibility of this series of compounds to the efflux pump AcrAB, we employed also the above-mentioned E. coli N43, which is the knockout of the AcrAB cell membrane pump.

A further data set has as its system S. aureus ATCC 43300. Kind of data set: Transmission electron microscopy of septum formation. Particulars: MRSA cultured overnight; 1 at 1 μg/mL, DFNB at 0.25 μg/mL. It is filed as cell-based, Staphylococcus aureus. The text has this:
After having assessed the antimicrobial profile of this class of derivatives, we chose 1 to be further analyzed by transmission electron microscopy (TEM), in order to evaluate any morphological changes in septum formation, as done before as a simple FtsZ target validation assay. We cultured S. aureus ATCC 43300 alone or in the presence of 1 and 2,6-difluorononyloxybenzamide (DFNB) as a reference FtsZ inhibitor (positive control). […] These are the typical effects of the inhibition of FtsZ assembly and consequently of the block of bacterial cell division.
S. aureus ATCC 43300 (10^9 cells/mL) were cultured in the presence of 1 and DFNB (positive control), at the same concentrations used for optical microscopy and, after 16 h incubation at 37 °C, the cells were harvested and processed for transmission electron microscopy, as already described. Untreated S. aureus was used as negative control. After centrifugation at 3100× g for 5 min at room temperature, pelleted bacteria were fixed in 2.5% glutaraldehyde (Polysciences, Warrington, PA) in 0.1 M Na cacodylate buffer, pH 7.4, for 1 h at 4 °C, rinsed twice and post-fixed in Na cacodylate-buffered 1% OsO4 for 1 h at 4 °C. The samples were dehydrated through a series of graded ethanol solutions and propylene oxide and embedded in Poly/Bed 812 resin mixture. […]

Data set [7] relates to ESBL E. coli. Kind of data set: MIC in LB broth, ESBL E. coli clinical isolate. It is filed as cell-based, Escherichia coli. As for the experimental part:
as §1
(§2) Normal human lung fibroblasts (MRC-5) were grown in Dulbecco’s modified Eagle’s medium (DMEM) supplemented with 10% calf serum, 100 U/mL penicillin and […] streptomycin in an incubator at 5% CO2 atmosphere and 37 °C. The Gram-positive Staphylococcus aureus (methicillin-sensitive, MSSA ATCC 29213, and methicillin-resistant, MRSA ATCC 43300) and the Gram-negative Escherichia coli (ESBL, extended-spectrum beta-lactamase-positive) bacterial cells were grown in Luria-Bertani broth (LB) at 37 °C under constant shaking at 300 rpm.
(§3) The antibacterial activity was tested on both a methicillin-sensitive and a methicillin-resistant S. aureus strain, and an ESBL E. coli clinical isolate. All the compounds were dissolved at the final concentration of 20 mg/mL in dimethyl sulfoxide (DMSO) and serially diluted in LB. Fresh cell cultures were used at 10^5 cells/mL in a final volume of 2 mL. Each bacterial sample was grown with different compound concentrations that ranged from 100 to 0.1 μg/mL. […] To determine the MBC, the bacteria were then washed three times with LB, centrifuged at 900× g for 10 min at 4 °C, and the pellet resuspended in fresh LB. After overnight incubation at 37 °C, the absence of growth was confirmed by OD measurement. The presence of antibacterial activity, at any concentration tested, was established for values of absorbance < 0.1 OD600. All tests were performed in quadruplicate and for each series of experiments, both positive (no compounds) and negative (no bacteria) controls were included.

The test system of another data set is MRSA ATCC 43300. Kind of data set: MIC/MBC determination in LB broth, MRSA. It is filed as cell-based, Staphylococcus aureus. As for the experimental part: as §2, §3
Another data set relates to MDRSA 11.7. Kind of data set: Broth microdilution MIC, MDRSA 11.7. It is filed as cell-based, Staphylococcus aureus. Here is the method:
(§4) Antimicrobial activity of 1–8 was evaluated on both Gram-positive (Table 3) and Gram-negative (Table 4) species. As a continuation of our previous studies, considering the Gram-positive S. aureus, we chose a methicillin-sensitive S. aureus (MSSA, ATCC 29213), a methicillin-resistant S. aureus (MRSA, ATCC 43300) and two clinical isolates of S. aureus showing multi-drug resistance (MDRSA).
(§5) Antibacterial activities of compounds were determined by the broth microdilution method against MDRSA 11.7, MDRSA 12.1 and E. coli N43 following the European Committee on Antimicrobial Susceptibility Testing (EUCAST) recommendations and Clinical and Laboratory Standards Institute (CLSI) guidelines. Strains MDRSA ST-11.7 and ST-12.1 were obtained through the interlaboratory control organized by the EU Reference Laboratory—Antimicrobial Resistance. Only data on their resistance to antibiotics are known, but other data are not available.
(§6) Bacterial suspension of specific bacterial strain equivalent to 0.5 McFarland turbidity standard was diluted with cation-adjusted Mueller Hinton broth with TES (Thermo Fisher Scientific), to obtain a final inoculum of 10^5 CFU/mL. Compounds dissolved in DMSO and inoculum were mixed together and incubated for 20 h at 37 °C. After incubation, the minimal inhibitory concentration (MIC) values were determined by visual inspection as the lowest dilution of compounds showing no turbidity. Tetracycline was used as a positive control on every assay plate.
Background: Broth dilution looks for growth in wells or tubes with falling amounts of substance.

Data set [8] concerns E. coli N43. Kind of data set: Broth microdilution MIC, efflux-defective E. coli N43. It is filed as cell-based, Escherichia coli. Particulars: E. coli N43 (AcrAB knockout). As for the experimental part:
as §1, §5, §6

In a further data set the test system is MDRSA 12.1. Kind of data set: Broth microdilution MIC, MDRSA 12.1. It is filed as cell-based, Staphylococcus aureus. Here is the method: as §4, §5, §6
The test system of another data set is MSSA ATCC 29213. Kind of data set: MIC/MBC determination in LB broth, MSSA. It is filed as cell-based, Staphylococcus aureus. To be noted: MSSA ATCC 29213. As for the experimental part: as §2, §3
A further data set relates to MRC-5 cells. Kind of data set: MTT cytotoxicity assay. It is filed as cell-based, human. To be noted: MRC-5, concentration reducing cell viability by 90%, 24-h incubation. Here is the method: The compounds showing the most promising activities vs. MRSA were also assessed for their cytotoxicity on human MRC-5 cells. TD90, the concentration (µg/mL) able to reduce by 90% the viability of these cells, was determined together with the therapeutic index (TI), expressed as the ratio between TD90 and MBC values.
as §2
Compounds showing an antibacterial activity at a concentration lower than 10 μg/mL were serially diluted in DMEM and tested on MRC-5 cells by the MTT cytotoxicity assay (Sigma, St Louis, MO, USA). Cells (10^4 cells/well) were tested in a 96-well plate, in quadruplicate, using serially two-fold-diluted concentrations of the compound in 100 μL DMEM medium. After a 24-h incubation, the compound was removed, and the cells were overlaid with 1 mg/mL MTT in 100 μL serum-free DMEM for 3 h at 37 °C. The MTT solution was then replaced with DMSO for 10 min, and the absorbance was measured at 570 nm. The percentage of cytotoxicity was calculated by the formula [100 − (sample OD/untreated cells OD) × 100]. The compound concentration reducing cell viability by 90% was defined as the TD90 cytotoxic dose. The “therapeutic index” (TI) was also determined and defined as the ratio between TD90 and the MBC values.
A general note: Tetrazolium dyes change colour on reduction, which living cells bring about.

In brackets after ≈: the same amount, converted by molar mass. Where two headings read alike, the source gives them in different places. Some results are limits rather than exact numbers.

The term MIC denotes the lowest concentration that inhibits growth of the organism. With `CN(C)CNC(=O)c1c(F)ccc(OCc2nc3cc(Cl)cnc3s2)c1F` [TXY436], the minimal inhibitory concentration (MIC) in the data set with E. coli AcrAB– was 8 µg/mL (≈ 19.4 µM); in data set [1], 1.0 µg/mL (≈ 2.42 µM); in data set [2] it was 8 µg/mL (≈ 19.4 µM).

In the case of `CC[n+]1c(/C=C/N(C)c2ccccc2)n(-c2ccccc2)c2ccc(-c3nc4ccccc4s3)cc21` [Compound Z2], the MIC in the data set on E. coli WildType was 20 µg/mL; with E. coli AcrAB–, 2.5 µg/mL; in data set [1] it was 0.6 µg/mL.

In the case of `CSc1nc(-c2ccc3c(c2)OC(COc2ccc(F)c(C(N)=O)c2F)CO3)no1` (stereo not shown) [I], the “Morphometric analysis by TEM” value in the data set with Sa cells is “significant elongation in cellular dimension, bacterial swelling and cell desegregation”. Besides, the MIC in the data set with E. coli AcrAB– is 16 µg/mL (≈ 36.7 µM); in the data set on E. coli ATCC 25922 [3] it was greater than 100 µg/mL; in data set [1] it was 0.6 µg/mL (≈ 1.38 µM); with E. coli N43 [4], 16 µg/mL (≈ 36.7 µM); with ESBL E. coli [5], greater than 100 µg/mL.

What is called MBC is the lowest tested concentration that kills the bacteria rather than only halting them. The low end stands for more potent killing, the high end for less potent killing. As for “3-(1,4-benzoxathiane-2-yl)-2,6-difluorobenzamide [Compound 1]”, the minimal inhibitory concentration (MIC) against E. coli ATCC 25922 [6] was greater than 100 µg/mL; in the data set on ESBL E. coli [7], greater than 100 µg/mL; with MRSA ATCC 43300, 1 µg/mL; against MDRSA 11.7, 2 µg/mL; in the data set on E. coli N43 [8] it was 64 µg/mL; with MDRSA 12.1 it was 2 µg/mL. For the same molecule, in the data set on MSSA ATCC 29213, the minimum inhibitory concentration (MIC) turned out to be 1 µg/mL. Besides, the “Morphological changes in septum formation (TEM)” value in the data set with S. aureus ATCC 43300 is “strong alterations in the septum formation and bacterial desegregation”. Also, the MBC against MRSA ATCC 43300 and in the data set on MSSA ATCC 29213 was 1 µg/mL throughout. Moreover, the MBC/MIC in the data set on MRSA ATCC 43300 and with MSSA ATCC 29213 was 1 each time. This molecule displayed a TD90 in the data set on MRC-5 cells greater than 800 µg/mL.

For the molecule `Cc1nc(-c2ccc3c(c2)OC(COc2ccc(F)c(C(N)=O)c2F)CO3)no1` (stereo not shown) [II], the “Morphometric analysis by TEM” value in the data set with Sa cells is “significant elongation in cellular dimension, bacterial swelling and cell desegregation”. Also, the MIC in the data set with E. coli AcrAB– is 16 µg/mL (≈ 39.7 µM); in the data set on E. coli ATCC 25922 [3], greater than 100 µg/mL; in data set [1] it was 0.6 µg/mL (≈ 1.49 µM); in the data set with E. coli N43 [4], 16 µg/mL (≈ 39.7 µM); with ESBL E. coli [5], greater than 100 µg/mL.

Source of the values: paper PMC7235863, “Benzamide Derivatives Targeting the Cell Division Protein FtsZ: Modifications of the Linker and the Benzodioxane Scaffold and Their Effects on Antimicrobial Activity” (Antibiotics, 2020).
